From PubChem BioAssay (NCI)
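96-well plates; 48 h exposure; 5 concentrations. Endpoints by linear interpolation between flanking doses. Not reached: highest tested concentration assigned. Definition used: TGI = concentration required for complete inhibition of growth.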

Key:
Assay in all cases: DTP human tumour cell line panel, 48 h
[1] = test system: 786-0 renal
[2] = test system: A549 NSCLC
[3] = test system: BT-549 breast
[4] = test system: CCRF-CEM leukemia
[5] = test system: COLO 205 colon
[6] = test system: DU-145 prostate
[7] = test system: EKVX NSCLC
[8] = test system: HCC-2998 colon
[9] = test system: HCT-116 colon
[10] = test system: HCT-15 colon
[11] = test system: HL-60(TB) leukemia
[12] = test system: HOP-62 NSCLC
[13] = test system: HT29 colon
[14] = test system: IGROV1 ovarian
[15] = test system: K-562 leukemia
[16] = test system: KM12 colon
[17] = test system: LOX IMVI melanoma
[18] = test system: M14 melanoma
[19] = test system: MCF7 breast
[20] = test system: MDA-MB-231 breast
[21] = test system: MDA-MB-435
[22] = test system: MDA-N
[23] = test system: MOLT-4 leukemia
[24] = test system: NCI-H23 lung
[25] = test system: NCI-H460 lung
[26] = test system: NCI-H522 lung
[27] = test system: OVCAR-3 ovarian
[28] = test system: OVCAR-4 ovarian
[29] = test system: OVCAR-5 ovarian
[30] = test system: OVCAR-8 ovarian
[31] = test system: PC-3 prostate
[32] = test system: SF-268 CNS
[33] = test system: SF-295 CNS
[34] = test system: SF-539 CNS
[35] = test system: SK-MEL-28 melanoma
[36] = test system: SK-MEL-5 melanoma
[37] = test system: SK-OV-3 ovarian
[38] = test system: SN12C renal
[39] = test system: SNB-19 CNS
[40] = test system: SNB-75 CNS
[41] = test system: SR leukemia
[42] = test system: SW-620 colon
[43] = test system: T-47D breast
[44] = test system: TK-10 renal
[45] = test system: U251 CNS
[46] = test system: UACC-257 melanoma
[47] = test system: UACC-62 melanoma
[48] = test system: UO-31 renal
[49] = test system: A498 renal
[50] = test system: ACHN renal
[51] = test system: CAKI-1 renal
[52] = test system: HOP-92 NSCLC
[53] = test system: MALME-3M melanoma
[54] = test system: NCI-H226 lung
[55] = test system: NCI/ADR-RES ovarian
[56] = test system: RPMI-8226 leukemia
[57] = test system: RXF 393 renal
[58] = test system: SK-MEL-2 melanoma
[59] = test system: HS 578T breast

SMILES: SC[C@@H]1COC[C@H](CS)S1
- TGI [1]: > 100 µM
- TGI [2]: > 100 µM
- TGI [3]: > 100 µM
- TGI [4]: > 100 µM
- TGI [5]: > 100 µM
- TGI [6]: > 100 µM
- TGI [7]: > 100 µM
- TGI [8]: > 100 µM
- TGI [9]: > 100 µM
- TGI [10]: > 100 µM
- TGI [11]: > 100 µM
- TGI [12]: > 100 µM
- TGI [13]: > 100 µM
- TGI [14]: > 100 µM
- TGI [15]: > 100 µM
- TGI [16]: > 100 µM
- TGI [17]: > 100 µM
- TGI [18]: > 100 µM
- TGI [19]: > 100 µM
- TGI [20]: > 100 µM
- TGI [21]: > 100 µM
- TGI [22]: > 100 µM
- TGI [23]: > 100 µM
- TGI [24]: > 100 µM
- TGI [25]: > 100 µM
- TGI [26]: > 100 µM
- TGI [27]: > 100 µM
- TGI [28]: > 100 µM
- TGI [29]: > 100 µM
- TGI [30]: > 100 µM
- TGI [31]: > 100 µM
- TGI [32]: > 100 µM
- TGI [33]: > 100 µM
- TGI [34]: > 100 µM
- TGI [35]: > 100 µM
- TGI [36]: > 100 µM
- TGI [37]: > 100 µM
- TGI [38]: > 100 µM
- TGI [39]: > 100 µM
- TGI [40]: > 100 µM
- TGI [41]: > 100 µM
- TGI [42]: > 100 µM
- TGI [43]: > 100 µM
- TGI [44]: > 100 µM
- TGI [45]: > 100 µM
- TGI [46]: > 100 µM
- TGI [47]: > 100 µM
- TGI [48]: > 100 µM

SMILES: O=c1c2c(sc3ccccc13)NCN(CCc1ccccc1)C2
- TGI [1]: > 100 µM
- TGI [49]: > 100 µM
- TGI [2]: > 100 µM
- TGI [50]: > 100 µM
- TGI [3]: > 100 µM
- TGI [51]: > 100 µM
- TGI [4]: > 100 µM
- TGI [5]: 37 µM
- TGI [6]: > 100 µM
- TGI [7]: > 100 µM
- TGI [8]: 56.9 µM
- TGI [9]: > 100 µM
- TGI [11]: > 100 µM
- TGI [12]: > 100 µM
- TGI [52]: > 100 µM
- TGI [13]: 53.8 µM
- TGI [14]: > 100 µM
- TGI [15]: 40.8 µM
- TGI [16]: > 100 µM
- TGI [17]: > 100 µM
- TGI [18]: 84.4 µM
- TGI [53]: > 100 µM
- TGI [19]: > 100 µM
- TGI [20]: 77.5 µM
- TGI [21]: > 100 µM
- TGI [22]: 59.7 µM
- TGI [23]: 80.2 µM
- TGI [54]: > 100 µM
- TGI [24]: > 100 µM
- TGI [25]: > 100 µM
- TGI [26]: > 100 µM
- TGI [55]: 99 µM
- TGI [27]: > 100 µM
- TGI [28]: > 100 µM
- TGI [29]: > 100 µM
- TGI [30]: > 100 µM
- TGI [31]: > 100 µM
- TGI [56]: 43 µM
- TGI [57]: > 100 µM
- TGI [33]: 43.5 µM
- TGI [34]: > 100 µM
- TGI [58]: 75.4 µM
- TGI [35]: > 100 µM
- TGI [36]: 29 µM
- TGI [37]: > 100 µM
- TGI [38]: > 100 µM
- TGI [39]: > 100 µM
- TGI [40]: 78.2 µM
- TGI [41]: > 100 µM
- TGI [42]: > 100 µM
- TGI [45]: > 100 µM
- TGI [46]: > 100 µM
- TGI [47]: > 100 µM
- TGI [48]: > 100 µM

SMILES: OC(c1ccc(F)cc1)C(F)(F)c1nc(-c2ccccc2)no1 (configuration not stated)
- TGI [1]: 44.2 µM
- TGI [49]: 39.2 µM
- TGI [50]: 67.2 µM
- TGI [3]: 36.8 µM
- TGI [51]: 72.1 µM
- TGI [4]: 52.2 µM
- TGI [6]: 50.4 µM
- TGI [7]: 63.7 µM
- TGI [9]: 36.7 µM
- TGI [10]: 63 µM
- TGI [11]: 48.7 µM
- TGI [52]: 91.9 µM
- TGI [59]: 63.9 µM
- TGI [13]: 33.4 µM
- TGI [14]: > 100 µM
- TGI [17]: > 100 µM
- TGI [18]: 32.7 µM
- TGI [53]: 35 µM
- TGI [19]: 50.3 µM
- TGI [20]: 42.8 µM
- TGI [21]: 35.6 µM
- TGI [22]: 62.7 µM
- TGI [24]: 74.7 µM
- TGI [25]: 74.7 µM
- TGI [26]: > 100 µM
- TGI [55]: > 100 µM
- TGI [27]: 30.6 µM
- TGI [28]: 41.5 µM
- TGI [29]: 35.6 µM
- TGI [30]: > 100 µM
- TGI [31]: 63.4 µM
- TGI [32]: 62.9 µM
- TGI [58]: 39.1 µM
- TGI [35]: > 100 µM
- TGI [38]: 39.8 µM
- TGI [39]: 64.2 µM
- TGI [42]: 58.9 µM
- TGI [43]: 68.3 µM
- TGI [44]: > 100 µM
- TGI [45]: 29.2 µM
- TGI [46]: 43.4 µM
- TGI [47]: 37.7 µM
- TGI [48]: 35.4 µM

SMILES: Cc1cc(Cl)ccc1NC(=O)/C(Cl)=C(/Cl)C(=O)O
- TGI [1]: 51.7 µM
- TGI [2]: > 100 µM
- TGI [50]: 36.1 µM
- TGI [3]: 41.7 µM
- TGI [51]: 37.6 µM
- TGI [4]: > 100 µM
- TGI [5]: 78 µM
- TGI [6]: 61.4 µM
- TGI [7]: 39.9 µM
- TGI [8]: 39.3 µM
- TGI [9]: 37.9 µM
- TGI [10]: 37.9 µM
- TGI [11]: > 100 µM
- TGI [12]: 47.7 µM
- TGI [52]: 54.5 µM
- TGI [59]: 61.6 µM
- TGI [13]: 57.7 µM
- TGI [15]: > 100 µM
- TGI [16]: 82.8 µM
- TGI [17]: 43 µM
- TGI [18]: 72.1 µM
- TGI [19]: 50.5 µM
- TGI [20]: 47.8 µM
- TGI [21]: 45.9 µM
- TGI [22]: 60.9 µM
- TGI [24]: 67.8 µM
- TGI [25]: > 100 µM
- TGI [26]: 32.7 µM
- TGI [55]: 74.2 µM
- TGI [27]: 36.8 µM
- TGI [29]: 36.2 µM
- TGI [30]: 34.2 µM
- TGI [31]: 54.5 µM
- TGI [56]: 70.5 µM
- TGI [57]: 36.3 µM
- TGI [32]: > 100 µM
- TGI [33]: > 100 µM
- TGI [34]: 50.9 µM
- TGI [35]: 41 µM
- TGI [36]: > 100 µM
- TGI [37]: > 100 µM
- TGI [38]: 35 µM
- TGI [39]: > 100 µM
- TGI [40]: > 100 µM
- TGI [41]: 36.4 µM
- TGI [42]: 48.9 µM
- TGI [43]: 57.2 µM
- TGI [44]: 33.2 µM
- TGI [45]: 38.3 µM
- TGI [46]: 36.1 µM
- TGI [47]: 48.8 µM
- TGI [48]: > 100 µM
